Measurements taken from the CheMixHub viscosity set.

Assay: xn = mol fraction of the nth substance listed

CCC(=O)O + CCCCN(CCCC)CCCC
viscosity [mPa·s], 101.33 kPa
Conditions	x1 = 0.1	x1 = 0.2	x1 = 0.3	x1 = 0.4	x1 = 0.5	x1 = 0.6	x1 = 0.7	x1 = 0.8	x1 = 0.9
293.15 K	1.867	–	–	–	6.422	12.71	26.1	23.66	6.57
298.15 K	1.389	1.676	2.303	3.571	5.447	10.24	20.63	19.13	5.91
303.15 K	1.228	1.495	1.923	3.107	4.591	8.37	16.9	15.79	4.93
308.15 K	1.112	1.342	1.728	2.693	3.887	7.04	13.12	13.19	4.33
313.15 K	1.015	1.212	1.523	2.359	3.372	5.67	10.81	10.94	3.79
318.15 K	0.938	1.096	1.361	2.071	2.954	5.03	8.92	9.32	3.39
323.15 K	0.878	0.994	1.245	1.839	2.557	4.35	7.55	8.06	3.04

C1C[C@@H]2[C@H]3CC[C@H](C3)[C@@H]2C1 + CCCCO
viscosity [mPa·s], 101 kPa
Conditions	x2 = 0.1697	x2 = 0.3148	x2 = 0.4378	x2 = 0.5481	x2 = 0.6472	x2 = 0.7336	x2 = 0.8102	x2 = 0.8799	x2 = 0.9439
293.15 K	2.796	2.675	2.646	2.66	2.694	2.743	2.807	2.855	2.906
298.15 K	2.513	2.397	2.354	2.355	2.372	2.416	2.465	2.505	2.543
303.15 K	2.282	2.177	2.128	2.118	2.135	2.165	2.211	2.242	2.272
313.15 K	1.882	1.773	1.708	1.685	1.682	1.7	1.719	1.743	1.766

CCC(=O)O + CCCCO
308.15 K, 101 kPa
Conditions	viscosity [mPa·s]
x1 = 0.0503	1.834
x1 = 0.1016	1.791
x1 = 0.1477	1.736
x1 = 0.1995	1.695
x1 = 0.301	1.556
x1 = 0.4	1.482
x1 = 0.5007	1.402
x1 = 0.5993	1.312
x1 = 0.7006	1.222
x1 = 0.7995	1.12
x1 = 0.9007	1.02

CCCCCCCCCCCCC + CCCCO
viscosity [mPa·s], 100 kPa
Conditions	x1 = 0.1001	x1 = 0.2009	x1 = 0.2975	x1 = 0.3918	x1 = 0.5054	x1 = 0.6051	x1 = 0.7	x1 = 0.7984	x1 = 0.8908
293.15 K	2.584	2.319	2.148	2.004	1.901	1.841	1.807	1.788	1.829
298.15 K	2.271	2.051	1.905	1.789	1.703	1.644	1.63	1.617	1.668
303.15 K	2.006	1.821	1.701	1.606	1.535	1.489	1.48	1.469	1.522
308.15 K	1.782	1.625	1.524	1.448	1.391	1.353	1.351	1.342	1.386
313.15 K	1.591	1.459	1.374	1.312	1.268	1.246	1.239	1.231	1.265
318.15 K	1.426	1.314	1.245	1.194	1.161	1.152	1.139	1.133	1.158
323.15 K	1.283	1.19	1.132	1.092	1.066	1.059	1.052	1.048	1.068

ClCCCCCl + CCCCO
viscosity [mPa·s], 101 kPa
Conditions	x1 = 0.0988	x1 = 0.1965	x1 = 0.2919	x1 = 0.3955	x1 = 0.4961	x1 = 0.5978	x1 = 0.6964	x1 = 0.7945	x1 = 0.8982
298.15 K	2.129	1.827	1.61	1.455	1.338	1.265	1.221	1.204	1.213
313.15 K	1.485	1.3	1.17	1.077	1.012	0.9721	0.9502	0.9443	0.9674

Nc1cccc(Cl)c1 + CCCCO
viscosity [mPa·s], 101 kPa
Conditions	x1 = 0.0884	x1 = 0.1792	x1 = 0.2723	x1 = 0.368	x1 = 0.4662	x1 = 0.5671	x1 = 0.6708	x1 = 0.7774	x1 = 0.8871
303.15 K	2.47	2.654	2.84	3.03	3.219	3.412	3.607	3.806	4.02
308.15 K	2.198	2.371	2.546	2.72	2.895	3.073	3.253	3.441	3.635
313.15 K	1.966	2.128	2.284	2.441	2.598	2.759	2.923	3.091	3.261
318.15 K	1.761	1.911	2.052	2.19	2.328	2.468	2.61	2.756	2.897

O=C(O)c1ccccc1O + CCCCO
viscosity [mPa·s]
Conditions	308.15 K	313.15 K	318.15 K	323.15 K
101 kPa, x1 = 0.14	2.453	–	–	–
101 kPa, x1 = 0.173	2.656	–	–	–
101 kPa, x1 = 0.193	2.761	–	–	–
101.33 kPa, x1 = 0.14	2.453	2.187	1.951	1.736
101.33 kPa, x1 = 0.193	2.761	2.375	2.154	1.928

Nc1cccc(Cl)c1 + CCCCOCCO
303.15 K, 101 kPa
Conditions	viscosity [mPa·s]
x1 = 0.1347	2.958
x1 = 0.2158	3.022
x1 = 0.3353	3.099
x1 = 0.4394	3.15
x1 = 0.5555	3.192
x1 = 0.6554	3.214
x1 = 0.7157	3.226
x1 = 0.8263	3.239
x1 = 0.912	3.242

CC(=O)CCC(=O)O + CCCC[N+](CCCC)(CCCC)CCCC.[Br-]
viscosity [mPa·s], 101 kPa
Conditions	293.15 K	298.15 K	303.15 K	308.15 K	313.15 K	318.15 K	323.15 K
x1 = 0.75	376.5	–	175.1	–	93.88	–	53.38
x2 = 0.25	–	261.9	169.6	118.6	89.13	64.47	46.13
